# From patent US20190134003A1, “COMBINATION THERAPIES USING INDAZOLYLBENZAMIDE DERIVATIVES FOR THE TREATMENT OF CANCER” (ESANEX, INC., priority 2016, published 2019)
# Experiments:
# [1] = Dose escalation, MTD/DLT and adverse events of SNX-5422 with carboplatin and paclitaxel in patients; assay type: in vivo, human; details: SNX-5422 qod in combination with carboplatin (AUC 5) and paclitaxel (175 mg/m^2)
# Text: The performed dosing schedule is disclosed in FIG. 1. SNX-5422 dose was escalated as follows.
# [2] = every other day (qod), previously-established; cited from earlier work
compound,measurement,setting,value
"CC1(C)CC(=O)c2c(C(F)(F)F)nn(-c3ccc(C(N)=O)c(N[C@H]4CC[C@H](OC(=O)CN)CC4)c3)c2C1 [SNX-5422, trans-4-{(2-(aminocarbonyl)-5-[6,6-dimethyl-4-oxo-3-(trifluoromethyl)-4,5,6,7-tetrahydro-1H-indazol-1-yl]phenyl}amino)cyclohexyl glycinate]",Maximum Tolerated Dose,[1],100 mg/m^2
same,single agent MTD,[2],100 mg/m^2
